We go through six compounds from paper PMC10135569, “Does Enhanced Structural Maturity of hiPSC-Cardiomyocytes Better for the Detection of Drug-Induced Cardiotoxicity?” (Biomolecules, 2023).

Entries after “also recorded” stand apart in the source; their conditions may differ. Read-outs that look alike come from different tables or passages of the source.

The conditions of data set [1]: listed in Supplementary Table S1; no reference given; cited from earlier work.
In data set [2] the test system is hiPSC-CMs (iCell2 Cardiomyocytes) 2D monolayers. As to the kind of experiment: Membrane potential (action potential) recordings with FluoVolt voltage-sensitive dye on the CellOPTIQ platform. It is filed as cell-based, human. The conditions noted are these: for effect on APD90: positive control. Here is the method: (§1) Cardiomyocytes (FUJIFILM Cellular Dynamics, Madison, WI, USA) were kept at −190 °C and prepared for culture as per the manufacturer’s instructions.
(§2) Standard fibronectin vs. Matrix Plus well coating: The cells were cultured using two different coatings in a humidified incubator at 37 °C with 5% CO2. First, 96-well glass-bottomed plates (MatTek, Ashland, MA) were coated with fibronectin ([…] in PBS supplemented with Ca^2+ and Mg^2+; Sigma, St. Louis, MO, USA) (defining FM). Second, CELLvo^TM Matrix Plus (StemBioSys, San Antonio, TX, USA), which were pre-coated on 96 well glass bottom plates and kept at 4 °C. On the day of plating, CELLvo^TM Matrix Plus plates were transferred to room temperature, rehydrated with phosphate buffer saline (PBS), incubated for 1 h at 37 °C, and washed 2× with PBS. Cells were introduced at a density of 50,000 cells/well to allow the formation of a confluent monolayer in each well (defined as MM). The maintenance protocols followed the manufacturer’s instructions and used the iCell^2 Cardiomyocytes Maintenance media for media changes every 2 days. Experiments were performed between days 5 and 6, as recommended by the manufacturers. Before beginning an experiment, cells were washed in serum-free media (SF media) (Fluorobrite DMEM, Gibco, Thermo Fisher Scientific, Horsham, UK).
(§3) The drug powders were dissolved in DMSO, and four stock concentrations at 1000× the final target concentration were prepared in DMSO. For the experiment, an intermediate concentration 2× the target solution was prepared in SF media. The addition of drugs to the cells was accomplished by replacing 50% of the well volume with the intermediate 2× solution. The same procedure was done for vehicle control using DMSO. The experimental number n = 8/concentration/testing compound in the FM or MM condition, and n = 36 for each positive or negative control in the FM or MM condition.
Cultures of hiPSC-CMs (5–6 days post-plating) were treated with FluoVolt dye (1:1000, Invitrogen, Cat# F10488) in SF media and incubated for 20 min at 37 °C with 5% CO2 and 80% humidity. Multi-well plates were placed in the environmentally controlled stage incubator (37 °C, 5% CO2, water-saturated air atmosphere) (Okolab Inc. Burlingame, CA) of the CellOPTIQ® platform (Clyde Biosciences Ltd., Glasgow, Scotland). The FluoVolt signal was recorded from a 0.2 mm × 0.2 mm area using a 40× (numerical aperture: NA 0.6) Excitation wavelength was 470 ± 10 nm using a light-emitting diode (LED), and emitted light was collected by two photomultipliers (PMTs) at 510–560 nm (channel 1) and 590–650 nm (channel 2), respectively. LED, PMT, and associated power supplies and amplifiers were supplied by Cairn Research Ltd. (Kent, UK) and digitized at 10 kHz and stored on a computer hard drive. In the case of FluoVolt-based action potential recordings, the short wavelength (channel 1, […]) was analyzed for action potential features.
(§4) The dye FluoVolt is loaded into the surface membrane (outer leaflet), and the dye remains within the membrane for many dots, allowing intermittent voltage measurements over the experimental period. In this study, measurements were restricted to within 30 mins of application of the drug. The measurements were made on the same area before/after drug/DMSO addition. […] Baseline spontaneous electrical activity and the associated contractility signal were recorded by capturing 10 s segments of fluorescent signal and video for 2D plates and 15 s for organoids from each well prior to compound addition. Drugs were tested at four concentrations in n = 8 independent replicates (i.e., 8 wells from a single plating) at each concentration. A vehicle control was included for each drug. A 10 s or 15 s recording was then taken 30 min after exposure to the drug or vehicle with only one concentration applied/well.

Data set [3] shares this test system. As to the kind of experiment: Contractility measurements using video imaging (ContractilityTool / MUSCLEMOTION). It is filed as cell-based, human. The procedure:
as §1, §2, §3
as §4, with “applied/well. Offline analysis was performed using proprietary software (CellOPTIQ®).” for “applied/well.”
Short periods (10 s or 15 s) of video were analyzed using the ContractilityTool application (developed by F.L. Burton), which is an implementation of the MUSCLEMOTION algorithm.

Setting [4] is: FM monolayer, 0.01 µM, 30 min, delta over DMSO 0.1%.
Setting [5] is: FM monolayer, 0.1 µM, 30 min, delta over DMSO 0.1%.
Where [6] appears, read: FM monolayer, 0.3 µM, 30 min, delta over DMSO 0.1%.
Setting [7] is: FM monolayer, 1 µM, 30 min, delta over DMSO 0.1%.
[8] abbreviates: MM monolayer, 0.01 µM, 30 min, delta over DMSO 0.1%.
Setting [9] is: MM monolayer, 0.1 µM, 30 min, delta over DMSO 0.1%.
[10] abbreviates: MM monolayer, 0.3 µM, 30 min, delta over DMSO 0.1%.
Where [11] appears, read: MM monolayer, 1 µM, 30 min, delta over DMSO 0.1%.
[12] abbreviates: range of concentrations, negative control, FM and MM.

Regarding `COCCOC(=O)C1=C(C)NC(C)=C(C(=O)OC(C)C)C1c1cccc([N+](=O)[O-])c1` (centres unmarked) [Nimodipine], the “Free Cmax” value in data set [1] is 69 nM.
`NC(=Nc1ccc(OCCCCCOc2ccc(N=C(N)c3ccccc3)cc2)cc1)c1ccccc1` [PA-6]: the “APD30 (%DD)” value was found to be 108±3.6 %DD in data set [2] (setting [4]); 99±3 %DD in data set [2] (setting [5]); 105±2.4 %DD in data set [2] (setting [6]); 110±1.3 %DD in data set [2] (setting [7]); 107±1.9 %DD in data set [2] (setting [8]); 105±1 %DD in data set [2] (setting [9]). Moreover, the “APD30 (%DD)” value in data set [2] (setting [10]) is given as 107±1.9 %DD; in data set [2] (setting [11]), 107±1.5 %DD. Besides, the “APD90 (%DD)” value amounted to 104±1.1 %DD in data set [2] (setting [4]); 107±1.4 %DD in data set [2] (setting [5]); 111±0.8 %DD in data set [2] (setting [6]); 116±1.3 %DD in data set [2] (setting [7]); 103±1.5 %DD in data set [2] (setting [8]); 111±2.2 %DD in data set [2] (setting [9]). Also, the “APD90 (%DD)” value in data set [2] (setting [10]) is listed as 111±1 %DD; in data set [2] (setting [11]), 111±1.7 %DD. Besides, the “CL (%DD)” value is 101±0.8 %DD in data set [2] (setting [4]); 98±2.3 %DD in data set [2] (setting [5]); 101±2.5 %DD in data set [2] (setting [6]); 108±1.4 %DD in data set [2] (setting [7]); 97±0.7 %DD in data set [2] (setting [8]); 100±0.5 %DD in data set [2] (setting [9]). Moreover, the “CL (%DD)” value in data set [2] (setting [10]) is 102±0.8 %DD; in data set [2] (setting [11]), 108±2.4 %DD. Moreover, the “Trise (%DD)” value in data set [2] (setting [4]) worked out at 101±17.4 %DD; in data set [2] (setting [5]) it was 70±6.1 %DD; in data set [2] (setting [6]) it was 89±10.8 %DD; in data set [2] (setting [7]), 128 ± 15.8 %DD; in data set [2] (setting [8]), 119±25.1 %DD; in data set [2] (setting [9]), 74±17.9 %DD. Further, the “Trise (%DD)” value in data set [2] (setting [10]) was determined as 96±12.7 %DD; in data set [2] (setting [11]) it was 138±14.2 %DD. Moreover, the “effect on APD90 (in words)” value in data set [2] (both FM and MM monolayers, concentration not given) is reported as “mild APD90 prolongation”. Also, the “effect of selective Kir2.1 channel block” value in data set [2] (both experimental groups) is “lack of effect”. Also, the “CtAmp (%DD)” value is given as 103±8.8 %DD in data set [3] (setting [4]); 111±14.2 %DD in data set [3] (setting [5]); 105±10.2 %DD in data set [3] (setting [6]); 111 ± 8.1 %DD in data set [3] (setting [7]); 127±13 %DD in data set [3] (setting [8]); 99±11.2 %DD in data set [3] (setting [9]). The “CtAmp (%DD)” value is on record as 135±22.2 %DD in data set [3] (setting [10]) and 114±9.8 %DD in data set [3] (setting [11]). Moreover, the “CtD50 (%DD)” value in data set [3] (setting [4]) came out at 104±1.7 %DD; in data set [3] (setting [5]), 105±1.8 %DD; in data set [3] (setting [6]), 106±2.1 %DD; in data set [3] (setting [7]), 112±2.5 %DD; in data set [3] (setting [8]), 101±1.3 %DD; in data set [3] (setting [9]), 103±1.1 %DD. Also, the results for the “CtD50 (%DD)” value in data set [3] (setting [10]) and in data set [3] (setting [11]) were 105±1.9 %DD and 107±1.2 %DD, respectively.
As to `O=C(O)COCCN1CCN(C(c2ccccc2)c2ccc(Cl)cc2)CC1` (centres unmarked) [Cetirizine], the activity at 0.1 µM in data set [2] (Homo sapiens, Cardiomyocyte, 0.5 h, FM monolayer, 0.1 µM, 30 min, delta over DMSO 0.1%, read-out: Trise (%DD)) came to 154 ± 32.6%; in data set [2] (Homo sapiens, Cardiomyocyte, 0.5 h, MM monolayer, 0.1 µM, 30 min, delta over DMSO 0.1%, read-out: Trise (%DD)), 146 ± 16.9%; in data set [3] (Homo sapiens, Cardiomyocyte, 0.5 h, FM monolayer, 0.1 µM, 30 min, delta over DMSO 0.1%, read-out: CtAmp (%DD)), 72 ± 13.3%. Further, the activity at 0.3 µM was found to be 127 ± 16.8% in data set [2] (Homo sapiens, Cardiomyocyte, 0.5 h, FM monolayer, 0.3 µM, 30 min, delta over DMSO 0.1%, read-out: Trise (%DD)) and 87 ± 14.6% in data set [3] (Homo sapiens, Cardiomyocyte, 0.5 h, FM monolayer, 0.3 µM, 30 min, delta over DMSO 0.1%, read-out: CtAmp (%DD)). Also, the activity at 3 µM in data set [2] (Homo sapiens, Cardiomyocyte, 0.5 h, FM monolayer, 3 µM, 30 min, delta over DMSO 0.1%, read-out: Trise (%DD)) worked out at 122 ± 8.8%; in data set [3] (Homo sapiens, Cardiomyocyte, 0.5 h, MM monolayer, 3 µM, 30 min, delta over DMSO 0.1%, read-out: CtAmp (%DD)), 87 ± 5.3%. Moreover, the “change in the voltage parameters” value in data set [2] (setting [12]) is “No change”. The activity at 1 µM in data set [3] (Homo sapiens, Cardiomyocyte, 0.5 h, FM monolayer, 1 µM, 30 min, delta over DMSO 0.1%, read-out: CtAmp (%DD)) is 129 ± 32.9%; in data set [3] (Homo sapiens, Cardiomyocyte, 0.5 h, MM monolayer, 1 µM, 30 min, delta over DMSO 0.1%, read-out: CtAmp (%DD)) it was 118 ± 14.2%. Further, in data set [3] (setting [12]), the “change in the contractility parameters” value is “No change”.
For the compound `CC(=O)OCC[N+](C)(C)C` [acetylcholine], the “effect on beating rate / spontaneous rate (in words)” value in data set [2] (both FM and MM, concentration not given) is listed as “decrease”. In data set [2] (both groups (FM and MM)), the “changes in the APD” value is under 10%.
On to `CN(CCOc1ccc(NS(C)(=O)=O)cc1)CCc1ccc(NS(C)(=O)=O)cc1` [Dofetilide], for which the “effect on APD90” value in data set [2] (10 nM, both 2D models) was “significantly prolonged”. In addition, in data set [1], the “Free Cmax” value was 2.7 nM.
Take `COC(=O)C1=C(C)NC(C)=C(C(=O)OC)C1c1ccccc1[N+](=O)[O-]` [Nifedipine]: the “effect on APD90” value in data set [2] (100 nM, 2D monolayers on fibronectin and Matrix Plus) was “shortened; also recorded: reduced”. The “effect on duration of contraction” value in data set [3] (100 nM, 2D monolayers on fibronectin and Matrix Plus, positive control) was “shortened; also recorded: reduced”.
